# Test results published in ChEMBL document CHEMBL1146942, “Abacavir prodrugs: microwave-assisted synthesis and their evaluation of anti-HIV activities” (Bioorg Med Chem Lett, 2006).
# Tests used:
# CCRF-CEM [1] = test: Cytotoxicity against CEM cell line; format: functional; settings: Homo sapiens
# [2] = system: Human immunodeficiency virus 1; test: Antiviral activity against HIV1 replication in CEM cell line; format: functional, organism-based; settings: Human immunodeficiency virus 1, CCRF-CEM
# CCRF-CEM [3] = test: Selectivity index (CC50/EC50) for inhibition of HIV1 replication in CEM cell line; format: functional
Structure (SMILES),CC50 (CCRF-CEM [1]) [µM],EC50 [2] [µM],Selectivity index (CCRF-CEM [3])
O=[N+]([O-])c1ccccc1/C=N/c1nc(NC2CC2)c2ncn(C3C=CC(CO)C3)c2n1 (stereo not given),13,0.48,–
Cc1ccc2c(c1)/C(=N\c1nc(NC3CC3)c3ncn(C4C=CC(CO)C4)c3n1)C(=O)N2 (stereo not given),78,2.1,–
Nc1nc(NC2CC2)c2ncn([C@H]3C=C[C@@H](CO)C3)c2n1 [ABACAVIR],83,1.6,–
CN(C)c1ccc(/C=N/c2nc(NC3CC3)c3ncn(C4C=CC(CO)C4)c3n2)cc1 (stereo not given),> 100,0.06,–
O=C1Nc2ccc(F)cc2/C1=N\c1nc(NC2CC2)c2ncn(C3C=CC(CO)C3)c2n1 (stereo not given),56,6.2,–
O=C1Nc2ccccc2/C1=N\c1nc(NC2CC2)c2ncn(C3C=CC(CO)C3)c2n1 (stereo not given),48,5,–
COc1ccc(/C=N/c2nc(NC3CC3)c3ncn(C4C=CC(CO)C4)c3n2)cc1 (stereo not given),> 100,0.36,–
COc1ccc(/C=N/c2nc(NC3CC3)c3ncn(C4C=CC(CO)C4)c3n2)c(O)c1 (stereo not given),100,1.2,–
O=[N+]([O-])c1ccc(/C=N/c2nc(NC3CC3)c3ncn(C4C=CC(CO)C4)c3n2)cc1 (stereo not given),12,0.52,–
Cc1ccc(/C=N/c2nc(NC3CC3)c3ncn(C4C=CC(CO)C4)c3n2)cc1 (stereo not given),> 100,0.05,>2000
OCC1C=CC(n2cnc3c(NC4CC4)nc(/N=C(\c4ccccc4)c4ccc(Br)cc4)nc32)C1 (stereo not given),45,3.7,–
C/C(=N\c1nc(NC2CC2)c2ncn(C3C=CC(CO)C3)c2n1)c1ccc(O)cc1 (stereo not given),62,1.9,–
